The values that follow come from article PMC5433438 (Bioorganic & Medicinal Chemistry, 2015).

This test has as its target HKU4-CoV 3CL^pro (Bat coronavirus HKU4, UniProt P0C6W3). The test is classed as biochemical, Tylonycteris bat coronavirus HKU4.

Molecules are shown by their SMILES.

HKU4-CoV 3CL^pro, sequence (P0C6W3 3292-3597 limits assumed): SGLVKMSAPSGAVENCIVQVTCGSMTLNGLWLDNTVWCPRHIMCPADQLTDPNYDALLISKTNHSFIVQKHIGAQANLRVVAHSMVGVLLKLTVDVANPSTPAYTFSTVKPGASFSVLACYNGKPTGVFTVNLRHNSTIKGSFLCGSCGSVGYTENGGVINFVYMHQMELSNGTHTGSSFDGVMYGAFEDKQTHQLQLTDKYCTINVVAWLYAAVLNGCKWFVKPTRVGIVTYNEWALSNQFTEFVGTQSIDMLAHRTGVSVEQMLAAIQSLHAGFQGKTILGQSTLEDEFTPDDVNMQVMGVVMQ

In the case of `O=C(Nc1ccc(N(Cc2ccsc2)C(=O)Cn2nnc3ccccc32)cc1)c1cccs1` [1A], the “IC50 (μM)” value is “sub-micromolar”.

Turning to `O=C(Nc1ccc(N(Cc2ccsc2)C(=O)Cn2nnc3ccccc32)cc1)c1ccccc1` [2A], the “IC50 (μM)” value is “sub-micromolar”.

On to `CC(=O)Nc1ccc(N(C(=O)Cn2nnc3ccccc32)C(C(=O)NC(C)(C)C)c2ccsc2)cc1` (stereo not shown) [3B], for which the “increase in IC50” value was determined as 5 fold.

As to `O=C(Cn1nnc2ccccc21)N(Cc1ccsc1)c1ccc(-c2ccncc2)cc1` [5A], the fold more active turned out to be 2 fold.

As for `O=C(Cn1nnc2ccccc21)N(Cc1ccsc1)c1ccc(NCc2ccccc2)cc1` [17A], the “increase in IC50” value came to 10 fold.

`CC(C)C(=O)Nc1ccc(N(Cc2ccsc2)C(=O)Cn2ccnn2)cc1` [19A]: the “decrease in inhibitory potency between the analogs” value is given as “ten-fold”.

As to `O=C(Cn1nnc2ccccc21)NCc1ccsc1` [22A, 2-(1H-Benzo[d][1,2,3]triazol-1-yl)-N-(thiophen-3-ylmethyl)acetamide], the “increase in IC50” value is given as “greater than 200 fold”.
